Earlier results, collected in patent US20260053727A1, “PERSONAL CARE COMPOSITIONS WITH ENZYME-MODIFIED OILS (EMOS)” (GLYCOSBIO INC., priority 2023, published 2026).

Settings: commonly known

O=C([O-])c1ccccc1.[Na+] [sodium benzoate]
antimicrobial activity: weakly antimicrobial
